These molecules were tested on BRD pathogens, M. haemolytica and P. multocida (assay: MIC screening panel of BRD pathogens (antibacterial / non-antibacterial)). Conditions: Table H, Formula (1-A1) compounds.

| Compound | MIC ≤64 μg/mL for at least one BRD bacterial strain (flag * at Ex #) |
| --- | --- |
| CCCNC[C@]1(O)[C@H](C)O[C@@H](O[C@H]2[C@H](C)[C@@H](O[C@@H]3O[C@H](C)C[C@H](N(C)C(=O)NCCN4CCCCC4)[C@H]3O)[C@](C)(O)C[C@@H](C)CN[C@H](C)[C@@H](O)[C@](C)(O)[C@@H](CC)OC(=O)[C@@H]2C)C[C@@]1(C)OC [Example H-98, 1-((2S,3R,4S,6R)-2-(((2R,3S,4R,5R,8R,10R,11R,12S,13S,14R)-2-ethyl-3,4,10-trihydroxy-13-(((2R,4R,5S,6S)-5-hydroxy-4-methoxy-4,6-dimethyl-5-((propylamino)methyl)tetrahydro-2H-pyran-2-yl)oxy)-3,5,8,10,12,14-hexamethyl-15-oxo-1-oxa-6-azacyclopentadecan-11-yl)oxy)-3-hydroxy-6-methyltetrahydro-2H-pyran-4-yl)-1-methyl-3-(2-(piperidin-1-yl)ethyl)urea] | H-98* (*MIC ≤64 μg/mL for at least one BRD bacterial strain) |

Same assay, conditions: read-out: antibacterial / non-antibacterial (MIC for the BRD pathogens)

| Compound | MIC [µg/mL] |
| --- | --- |
| CC[C@H]1OC(=O)[C@H](C)[C@@H](O)[C@H](C)[C@@H](O[C@@H]2O[C@H](C)C[C@H](N(C)C(=O)Nc3cccc(C)c3)[C@H]2O)[C@](C)(O)C[C@@H](C)CN[C@H](C)[C@@H](O)[C@]1(C)O [Example A-25, 1-((2S,3R,4S,6R)-2-(((2R,3S,4R,5R,8R,10R,11R,12S,13S,14R)-2-ethyl-3,4,10,13-tetrahydroxy-3,5,8,10,12,14-hexamethyl-15-oxo-1-oxa-6-azacyclopentadecan-11-yl)oxy)-3-hydroxy-6-methyltetrahydro-2H-pyran-4-yl)-1-methyl-3-(m-tolyl)urea] | > 64 |
| CC[C@H]1OC(=O)[C@H](C)[C@@H](O)[C@H](C)[C@@H](O[C@@H]2O[C@H](C)C[C@H](N(C)C(=O)Nc3ccc(C(F)(F)F)cc3)[C@H]2O)[C@](C)(O)C[C@@H](C)CN[C@H](C)[C@@H](O)[C@]1(C)O [Example A-15, 1-((2S,3R,4S,6R)-2-(((2R,3S,4R,5R,8R,10R,11R,12S,13S,14R)-2-ethyl-3,4,10,13-tetrahydroxy-3,5,8,10,12,14-hexamethyl-15-oxo-1-oxa-6-azacyclopentadecan-11-yl)oxy)-3-hydroxy-6-methyltetrahydro-2H-pyran-4-yl)-1-methyl-3-(4-(trifluoromethyl)phenyl)urea] | > 64 |
| CC[C@H]1OC(=O)[C@H](C)[C@@H](O[C@H]2C[C@@](C)(OC)[C@](O)(CNCCCN3CCCC3=O)[C@H](C)O2)[C@H](C)[C@@H](O[C@@H]2O[C@H](C)C[C@H](N(C)C(=O)N(C)c3ccccc3)[C@H]2O)[C@](C)(O)C[C@@H](C)CN[C@H](C)[C@@H](O)[C@]1(C)O [Example H-35, 1-((2S,3R,4S,6R)-2-(((2R,3S,4R,5R,8R,10R,11R,12S,13S,14R)-2-ethyl-3,4,10-trihydroxy-13-(((2R,4R,5S,6S)-5-hydroxy-4-methoxy-4,6-dimethyl-5-(((3-(2-oxopyrrolidin-1-yl)propyl)amino)methyl)tetrahydro-2H-pyran-2-yl)oxy)-3,5,8,10,12,14-hexamethyl-15-oxo-1-oxa-6-azacyclopentadecan-11-yl)oxy)-3-hydroxy-6-methyltetrahydro-2H-pyran-4-yl)-1,3-dimethyl-3-phenylurea] | > 64 |
| CC[C@H]1OC(=O)[C@H](C)[C@@H](O)[C@H](C)[C@@H](O[C@@H]2O[C@H](C)C[C@H](N(C)C(=O)Nc3ncccn3)[C@H]2O)[C@](C)(O)C[C@@H](C)CN[C@H](C)[C@@H](O)[C@]1(C)O [Example A-1, 1-((2S,3R,4S,6R)-2-(((2R,3S,4R,5R,8R,10R,11R,12S,13S,14R)-2-ethyl-3,4,10,13-tetrahydroxy-3,5,8,10,12,14-hexamethyl-15-oxo-1-oxa-6-azacyclopentadecan-11-yl)oxy)-3-hydroxy-6-methyltetrahydro-2H-pyran-4-yl)-1-methyl-3-(pyrimidin-2-yl)urea] | > 64 |
| CC[C@H]1OC(=O)[C@H](C)[C@@H](O[C@H]2C[C@@](C)(OC)[C@](O)(CNC)[C@H](C)O2)[C@H](C)[C@@H](O[C@@H]2O[C@H](C)C[C@H](N(C)C(=O)N3CCN(CC)CC3)[C@H]2O)[C@](C)(O)C[C@@H](C)CN[C@H](C)[C@@H](O)[C@]1(C)O [Example I-1, 4-ethyl-N-((2S,3R,4S,6R)-2-(((2R,3S,4R,5R,8R,10R,11R,12S,13S,14R)-2-ethyl-3,4,10-trihydroxy-13-(((2R,4R,5S,6S)-5-hydroxy-4-methoxy-4,6-dimethyl-5-((methylamino)methyl)tetrahydro-2H-pyran-2-yl)oxy)-3,5,8,10,12,14-hexamethyl-15-oxo-1-oxa-6-azacyclopentadecan-11-yl)oxy)-3-hydroxy-6-methyltetrahydro-2H-pyran-4-yl)-N-methylpiperazine-1-carboxamide] | > 64 |
| CC[C@H]1OC(=O)[C@H](C)[C@@H](O)[C@H](C)[C@@H](O[C@@H]2O[C@H](C)C[C@H](N(C)C(=O)Nc3ccc(F)cc3)[C@H]2O)[C@](C)(O)C[C@@H](C)CN[C@H](C)[C@@H](O)[C@]1(C)O [Example A-18, 1-((2S,3R,4S,6R)-2-(((2R,3S,4R,5R,8R,10R,11R,12S,13S,14R)-2-ethyl-3,4,10,13-tetrahydroxy-3,5,8,10,12,14-hexamethyl-15-oxo-1-oxa-6-azacyclopentadecan-11-yl)oxy)-3-hydroxy-6-methyltetrahydro-2H-pyran-4-yl)-3-(4-fluorophenyl)-1-methylurea] | > 64 |
| CC[C@H]1OC(=O)[C@H](C)[C@@H](O[C@H]2C[C@@](C)(OC)[C@](O)(Cn3cccn3)[C@H](C)O2)[C@H](C)[C@@H](O[C@@H]2O[C@H](C)C[C@H](N(C)C(=O)N(C)c3ccccc3)[C@H]2O)[C@](C)(O)C[C@@H](C)CN[C@H](C)[C@@H](O)[C@]1(C)O [Example J-23, 1-((2S,3R,4S,6R)-2-(((2R,3S,4R,5R,8R,10R,11R,12S,13S,14R)-13-(((2R,4R,5S,6S)-5-((1H-pyrazol-1-yl)methyl)-5-hydroxy-4-methoxy-4,6-dimethyltetrahydro-2H-pyran-2-yl)oxy)-2-ethyl-3,4,10-trihydroxy-3,5,8,10,12,14-hexamethyl-15-oxo-1-oxa-6-azacyclopentadecan-11-yl)oxy)-3-hydroxy-6-methyltetrahydro-2H-pyran-4-yl)-1,3-dimethyl-3-phenylurea] | > 64 |
| CCCNC[C@]1(O)[C@H](C)O[C@@H](O[C@H]2[C@H](C)[C@@H](O[C@@H]3O[C@H](C)C[C@H](N(C)C(=O)N(C)c4cc(C)nc(C)n4)[C@H]3O)[C@](C)(O)C[C@@H](C)CN[C@H](C)[C@@H](O)[C@](C)(O)[C@@H](CC)OC(=O)[C@@H]2C)C[C@@]1(C)OC [Example H-57, 1-(2,6-dimethylpyrimidin-4-yl)-3-((2S,3R,4S,6R)-2-(((2R,3S,4R,5R,8R,10R,11R,12S,13S,14R)-2-ethyl-3,4,10-trihydroxy-13-(((2R,4R,5S,6S)-5-hydroxy-4-methoxy-4,6-dimethyl-5-((propylamino)methyl)tetrahydro-2H-pyran-2-yl)oxy)-3,5,8,10,12,14-hexamethyl-15-oxo-1-oxa-6-azacyclopentadecan-11-yl)oxy)-3-hydroxy-6-methyltetrahydro-2H-pyran-4-yl)-1,3-dimethylurea] | > 64 |
| CC[C@H]1OC(=O)[C@H](C)[C@@H](O[C@H]2C[C@@](C)(OC)[C@](O)(CCl)[C@H](C)O2)[C@H](C)[C@@H](O[C@@H]2O[C@H](C)C[C@H](N(C)C(=O)Nc3ccccc3)[C@H]2O)[C@](C)(O)C[C@@H](C)CN[C@H](C)[C@@H](O)[C@]1(C)O [Example E-1, 1-((2S,3R,4S,6R)-2-(((2R,3S,4R,5R,8R,10R,11R,12S,13S,14R)-13-(((2R,4R,5S,6S)-5-(chloromethyl)-5-hydroxy-4-methoxy-4,6-dimethyltetrahydro-2H-pyran-2-yl)oxy)-2-ethyl-3,4,10-trihydroxy-3,5,8,10,12,14-hexamethyl-15-oxo-1-oxa-6-azacyclopentadecan-11-yl)oxy)-3-hydroxy-6-methyltetrahydro-2H-pyran-4-yl)-1-methyl-3-phenylurea] | > 64 |
| CCCNC[C@]1(O)[C@H](C)O[C@@H](O[C@H]2[C@H](C)[C@@H](O[C@@H]3O[C@H](C)C[C@H](N(C)C(=O)N(C)c4ncc(C5CC5)cn4)[C@H]3O)[C@](C)(O)C[C@@H](C)CN[C@H](C)[C@@H](O)[C@](C)(O)[C@@H](CC)OC(=O)[C@@H]2C)C[C@@]1(C)OC [Example H-52, 1-(5-cyclopropylpyrimidin-2-yl)-3-((2S,3R,4S,6R)-2-(((2R,3S,4R,5R,8R,10R,11R,12S,13S,14R)-2-ethyl-3,4,10-trihydroxy-13-(((2R,4R,5S,6S)-5-hydroxy-4-methoxy-4,6-dimethyl-5-((propylamino)methyl)tetrahydro-2H-pyran-2-yl)oxy)-3,5,8,10,12,14-hexamethyl-15-oxo-1-oxa-6-azacyclopentadecan-11-yl)oxy)-3-hydroxy-6-methyltetrahydro-2H-pyran-4-yl)-1,3-dimethylurea] | > 64 |
| CC[C@H]1OC(=O)[C@H](C)[C@@H](O[C@H]2C[C@@](C)(OC)[C@](O)(CN3CCC3)[C@H](C)O2)[C@H](C)[C@@H](O[C@@H]2O[C@H](C)C[C@H](N(C)C(=O)N(C)c3ccccc3)[C@H]2O)[C@](C)(O)C[C@@H](C)CN[C@H](C)[C@@H](O)[C@]1(C)O [Example J-22, 1-((2S,3R,4S,6R)-2-(((2R,3S,4R,5R,8R,10R,11R,12S,13S,14R)-13-(((2R,4R,5S,6S)-5-(azetidin-1-ylmethyl)-5-hydroxy-4-methoxy-4,6-dimethyltetrahydro-2H-pyran-2-yl)oxy)-2-ethyl-3,4,10-trihydroxy-3,5,8,10,12,14-hexamethyl-15-oxo-1-oxa-6-azacyclopentadecan-11-yl)oxy)-3-hydroxy-6-methyltetrahydro-2H-pyran-4-yl)-1,3-dimethyl-3-phenylurea] | > 64 |
| CCCNC[C@]1(O)[C@H](C)O[C@@H](O[C@H]2[C@H](C)[C@@H](O[C@@H]3O[C@H](C)C[C@H](N(C)C(=O)NC)[C@H]3O)[C@](C)(O)C[C@@H](C)CN[C@H](C)[C@@H](O)[C@](C)(O)[C@@H](CC)OC(=O)[C@@H]2C)C[C@@]1(C)OC [Example H-92, 1-((2S,3R,4S,6R)-2-(((2R,3S,4R,5R,8R,10R,11R,12S,13S,14R)-2-ethyl-3,4,10-trihydroxy-13-(((2R,4R,5S,6S)-5-hydroxy-4-methoxy-4,6-dimethyl-5-((propylamino)methyl)tetrahydro-2H-pyran-2-yl)oxy)-3,5,8,10,12,14-hexamethyl-15-oxo-1-oxa-6-azacyclopentadecan-11-yl)oxy)-3-hydroxy-6-methyltetrahydro-2H-pyran-4-yl)-1,3-dimethylurea] | > 64 |

Source: patent US12295936B2, “Immunomodulating urea azalides” (Zoetis Services LLC, priority 2020, dated 2025)
